From US20260365670A1, “EGFR INHIBITORS AND USES THEREOF” (DIZAL (JIANGSU) PHARMACEUTICAL CO., LTD., priority 2022, published 2026)
Read-outs that look alike come from different tables or passages of the source.

Key:
[1] = biological target: T1, EGFR wild type (Homo sapiens, UniProt P00533); experiment: Inhibition of EGFR wild type biochemical enzymatic activity (HTRF); settings: 1 mM ATP
T1 construct: purchased Carna Bio
Method in brief: (§1)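 Recombinant kinases phosphorylated 1 μM biotinylated TK substrate with 1 mM ATP in buffer with 5 mM MgCl2, 1 mM MnCl2, 0.01% CHAPS, 1 mM DTT, 0.5% DMSO. Reaction ran 1 h at room temperature, stopped with EDTA-containing detection mix. HTRF 665/615 nm ratio gave IC50 via four-parameter logistic fit.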

[2] = biological target: T2, EGFR L858R (Homo sapiens, UniProt P00533, L858R); experiment: Inhibition of EGFR L858R biochemical enzymatic activity (HTRF); settings: 1 mM ATP
T2 construct: purchased Carna Bio
Method in brief: as §1

[3] = biological target: T3, EGFR L858R/T790M (Homo sapiens, UniProt P00533, L858R/T790M); experiment: Inhibition of EGFR L858R/T790M biochemical enzymatic activity (HTRF); settings: 1 mM ATP
T3 construct: purchased Carna Bio
Method in brief: as §1

[4] = biological target: T4, EGFR Exon19Del (Homo sapiens, UniProt P00533, DEL746-750); experiment: Inhibition of EGFR Exon19Del biochemical enzymatic activity (HTRF); settings: read-out: IC50 @Del19
T4 construct: purchased Carna Bio
Method in brief: as §1

[5] = biological target: T5, EGFR Exon19Del/T790M (Homo sapiens, UniProt P00533, DEL746-750/T790M); experiment: Inhibition of EGFR Exon19Del/T790M biochemical enzymatic activity (HTRF); settings: 1 mM ATP
T5 construct: purchased Carna Bio
Method in brief: as §1

[6] = biological target: T6, EGFR[T790M/C797S/L858R] (Homo sapiens, UniProt P00533, C797S/L858R/T790M); experiment: Inhibition of EGFR[T790M/C797S/L858R] biochemical enzymatic activity (HTRF); settings: 1 mM ATP
T6 construct: purchased Carna Bio
Method in brief: as §1

[7] = biological target: T7, EGFR[T790M/C797S/d746-750] (Homo sapiens, UniProt P00533, C797S/DEL746-750/T790M); experiment: Inhibition of EGFR[T790M/C797S/d746-750] biochemical enzymatic activity (HTRF)
T7 construct: purchased Carna Bio
Method in brief: as §1

[8] = biological target: T8, EGFR (d746-750 C797S) (Homo sapiens, UniProt P00533, C797S/DEL746-750); experiment: Inhibition of EGFR (d746-750 C797S) biochemical enzymatic activity (HTRF); settings: 1 mM ATP
T8 construct: purchased signalchem
Method in brief: as §1

[9] = biological target: T9, EGFR (C797S L858R) (Homo sapiens, UniProt P00533, C797S/L858R); experiment: Inhibition of EGFR (C797S L858R) biochemical enzymatic activity (HTRF); settings: 1 mM ATP
T9 construct: purchased signalchem
Method in brief: as §1

[10] = test system: Ba/F3 cells expressing EGFR mutations; experiment: Cell proliferation assay, Ba/F3 cells expressing EGFR mutations (CellTiter-Glo, 72 hours); format: cell-based; settings: Mus musculus, BaF3, 72 h
Method in brief: (§2)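 Seed Ba/F3 at 5000 cells/well and PC-9 at 500 cells/well (10% FBS RPMI1640); incubate overnight; add compound dilution series; read a G0 plate; incubate; read G3; GI50 from best-fit curve.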

[11] = test system: PC-9; experiment: Cell proliferation assay, PC-9 cells (CellTiter-Glo, 72 hours); format: cell-based; settings: Homo sapiens, PC-9, 72 h, PC9 cells, read-out: GI50 PC9
Method in brief: as §2

[12] = test system: A-431; experiment: Cell proliferation assay, A-431 cells (GI50, Table 6); format: cell-based; settings: Homo sapiens, A-431, A-431 cells
[13] = BaF3 cells, EGFR DEL19 - C797S, read-out: GI50 DEL19 - C797S/BaF3
[14] = BaF3 cells, EGFR DEL19 - T790-C797S, read-out: GI50 DEL19 - T790-C797S/BaF3
[15] = BaF3 cells, EGFR L858R - C797S, read-out: GI50 L858R - C797S/BaF3
[16] = BaF3 cells, EGFR L858R - T790-C797S, read-out: GI50 L858R - T790-C797S/BaF3
[17] = BaF3 cells, EGFR L858R - T790M, read-out: GI50 L858R - T790M/BaF3
[18] = BaF3 cells, EGFR L858R, read-out: GI50 L858R/BaF3
[19] = EGFR DEL19 - T790M, read-out: GI50 DEL19 - T790M
[20] = EGFR wild type, 1 h at room temperature, read-out: IC50 @WT
[21] = 1 h at room temperature, read-out: IC50 @L858R
[22] = EGFR L858R/T790M, 1 h at room temperature, read-out: IC50 @L858R-T790M
[23] = EGFR Exon19Del, 1 mM ATP, 1 h at room temperature
[24] = EGFR Exon19Del/T790M, 1 h at room temperature, read-out: IC50 @Del19-T790M
[25] = EGFR[T790M/C797S/L858R], 1 h at room temperature, read-out: IC50 @T790M- C797S - L858R
[26] = EGFR[T790M/C797S/d746-750], 1 mM ATP, 1 h at room temperature, read-out: IC50 @T790M - C797S - Del19
[27] = EGFR (d746-750 C797S), 1 h at room temperature, read-out: IC50 @Del19-C797S
[28] = EGFR (C797S L858R), 1 h at room temperature, read-out: IC50 @L858-C797S

T2 sequence (P00533 25-1210 L858R): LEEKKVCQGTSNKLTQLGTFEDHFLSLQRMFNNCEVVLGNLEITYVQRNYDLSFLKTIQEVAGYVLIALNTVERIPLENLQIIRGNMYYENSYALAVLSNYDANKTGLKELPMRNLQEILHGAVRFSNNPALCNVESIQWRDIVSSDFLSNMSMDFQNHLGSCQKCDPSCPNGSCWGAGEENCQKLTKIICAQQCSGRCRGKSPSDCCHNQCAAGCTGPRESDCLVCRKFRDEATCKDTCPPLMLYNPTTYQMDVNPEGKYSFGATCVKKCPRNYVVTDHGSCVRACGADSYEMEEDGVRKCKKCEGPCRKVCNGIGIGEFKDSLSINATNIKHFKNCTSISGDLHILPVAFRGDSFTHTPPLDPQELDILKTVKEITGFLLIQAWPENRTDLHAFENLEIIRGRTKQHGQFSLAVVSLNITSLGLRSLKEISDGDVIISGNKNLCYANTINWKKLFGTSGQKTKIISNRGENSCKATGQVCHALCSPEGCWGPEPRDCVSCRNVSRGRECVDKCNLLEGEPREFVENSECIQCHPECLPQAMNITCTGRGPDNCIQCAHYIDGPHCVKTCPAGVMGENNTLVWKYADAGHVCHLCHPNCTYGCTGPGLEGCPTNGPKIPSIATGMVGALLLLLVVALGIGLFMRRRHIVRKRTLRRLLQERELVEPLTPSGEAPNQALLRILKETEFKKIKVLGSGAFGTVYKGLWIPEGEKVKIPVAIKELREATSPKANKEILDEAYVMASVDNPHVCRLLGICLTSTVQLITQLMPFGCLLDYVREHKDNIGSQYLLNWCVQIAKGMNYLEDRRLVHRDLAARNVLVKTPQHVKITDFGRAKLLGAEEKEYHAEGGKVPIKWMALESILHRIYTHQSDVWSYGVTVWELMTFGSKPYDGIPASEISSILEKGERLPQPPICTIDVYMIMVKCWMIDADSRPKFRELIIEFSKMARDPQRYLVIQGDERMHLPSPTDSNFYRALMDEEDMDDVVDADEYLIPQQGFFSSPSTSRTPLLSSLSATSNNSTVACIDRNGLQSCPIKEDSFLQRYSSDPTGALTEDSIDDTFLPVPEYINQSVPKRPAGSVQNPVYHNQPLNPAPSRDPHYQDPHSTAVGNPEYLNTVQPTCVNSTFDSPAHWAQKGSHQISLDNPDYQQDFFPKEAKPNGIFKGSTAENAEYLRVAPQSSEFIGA
T4 sequence (P00533 with tags, fused parts or gaps DEL746-750 limits assumed): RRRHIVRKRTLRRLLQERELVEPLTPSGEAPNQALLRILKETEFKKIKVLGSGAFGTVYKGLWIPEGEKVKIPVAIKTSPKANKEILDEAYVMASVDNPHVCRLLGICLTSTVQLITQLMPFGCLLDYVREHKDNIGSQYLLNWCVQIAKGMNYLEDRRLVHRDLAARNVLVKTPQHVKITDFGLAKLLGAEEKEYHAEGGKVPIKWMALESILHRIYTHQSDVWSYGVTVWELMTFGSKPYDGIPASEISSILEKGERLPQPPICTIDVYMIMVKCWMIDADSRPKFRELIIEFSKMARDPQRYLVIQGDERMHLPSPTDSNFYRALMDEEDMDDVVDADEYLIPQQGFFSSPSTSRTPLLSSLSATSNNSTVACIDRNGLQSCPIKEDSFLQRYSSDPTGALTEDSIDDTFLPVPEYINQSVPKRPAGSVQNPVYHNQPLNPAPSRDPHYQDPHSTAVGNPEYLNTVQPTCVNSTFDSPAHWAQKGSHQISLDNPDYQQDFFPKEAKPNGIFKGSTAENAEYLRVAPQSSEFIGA
T8 sequence (P00533 with tags, fused parts or gaps DEL746-750/C797S limits assumed): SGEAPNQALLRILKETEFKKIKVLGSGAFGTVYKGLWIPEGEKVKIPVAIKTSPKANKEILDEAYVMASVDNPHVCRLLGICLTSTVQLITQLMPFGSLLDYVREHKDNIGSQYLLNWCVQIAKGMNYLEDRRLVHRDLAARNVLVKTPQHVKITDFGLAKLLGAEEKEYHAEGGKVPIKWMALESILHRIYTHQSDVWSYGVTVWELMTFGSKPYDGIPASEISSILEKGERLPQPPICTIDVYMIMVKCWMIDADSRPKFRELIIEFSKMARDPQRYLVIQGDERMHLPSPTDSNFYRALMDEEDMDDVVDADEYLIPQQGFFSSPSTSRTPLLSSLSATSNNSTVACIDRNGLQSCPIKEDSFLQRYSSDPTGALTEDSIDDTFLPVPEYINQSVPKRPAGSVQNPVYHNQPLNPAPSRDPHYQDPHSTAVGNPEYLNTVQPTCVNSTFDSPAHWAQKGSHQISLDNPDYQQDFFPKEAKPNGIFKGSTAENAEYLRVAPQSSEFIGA
T9 sequence (P00533 25-1210 C797S/L858R): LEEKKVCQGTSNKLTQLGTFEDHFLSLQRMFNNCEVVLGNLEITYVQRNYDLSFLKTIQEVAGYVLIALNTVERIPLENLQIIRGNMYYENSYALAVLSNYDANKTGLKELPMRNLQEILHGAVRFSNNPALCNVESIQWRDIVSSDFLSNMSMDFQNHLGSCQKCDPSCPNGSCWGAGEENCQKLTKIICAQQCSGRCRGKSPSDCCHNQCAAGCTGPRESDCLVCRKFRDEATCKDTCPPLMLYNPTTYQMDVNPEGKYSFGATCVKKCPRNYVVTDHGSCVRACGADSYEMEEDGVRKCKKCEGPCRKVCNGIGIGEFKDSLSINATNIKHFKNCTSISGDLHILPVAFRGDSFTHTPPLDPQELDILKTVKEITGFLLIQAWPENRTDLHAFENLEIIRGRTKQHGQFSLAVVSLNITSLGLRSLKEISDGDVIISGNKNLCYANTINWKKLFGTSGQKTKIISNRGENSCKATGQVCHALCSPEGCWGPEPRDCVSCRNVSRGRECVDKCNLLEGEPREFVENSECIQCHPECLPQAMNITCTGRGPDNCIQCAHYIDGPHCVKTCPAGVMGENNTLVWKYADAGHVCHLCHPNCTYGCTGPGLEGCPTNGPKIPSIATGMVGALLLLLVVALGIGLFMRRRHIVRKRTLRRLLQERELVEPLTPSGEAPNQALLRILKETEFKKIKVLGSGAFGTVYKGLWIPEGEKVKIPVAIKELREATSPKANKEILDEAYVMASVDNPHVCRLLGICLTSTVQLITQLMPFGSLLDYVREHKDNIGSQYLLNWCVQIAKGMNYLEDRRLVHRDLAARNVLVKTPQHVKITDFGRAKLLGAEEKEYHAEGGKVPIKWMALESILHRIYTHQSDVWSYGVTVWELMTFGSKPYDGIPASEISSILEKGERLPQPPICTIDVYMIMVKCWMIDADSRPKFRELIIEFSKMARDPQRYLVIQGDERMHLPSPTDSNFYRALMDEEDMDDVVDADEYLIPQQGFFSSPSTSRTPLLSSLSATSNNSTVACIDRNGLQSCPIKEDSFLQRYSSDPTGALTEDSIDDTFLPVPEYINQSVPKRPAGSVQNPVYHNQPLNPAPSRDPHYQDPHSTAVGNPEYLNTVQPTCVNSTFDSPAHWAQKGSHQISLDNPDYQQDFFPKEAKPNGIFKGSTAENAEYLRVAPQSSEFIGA
T3 sequence (P00533 25-1210 T790M/L858R): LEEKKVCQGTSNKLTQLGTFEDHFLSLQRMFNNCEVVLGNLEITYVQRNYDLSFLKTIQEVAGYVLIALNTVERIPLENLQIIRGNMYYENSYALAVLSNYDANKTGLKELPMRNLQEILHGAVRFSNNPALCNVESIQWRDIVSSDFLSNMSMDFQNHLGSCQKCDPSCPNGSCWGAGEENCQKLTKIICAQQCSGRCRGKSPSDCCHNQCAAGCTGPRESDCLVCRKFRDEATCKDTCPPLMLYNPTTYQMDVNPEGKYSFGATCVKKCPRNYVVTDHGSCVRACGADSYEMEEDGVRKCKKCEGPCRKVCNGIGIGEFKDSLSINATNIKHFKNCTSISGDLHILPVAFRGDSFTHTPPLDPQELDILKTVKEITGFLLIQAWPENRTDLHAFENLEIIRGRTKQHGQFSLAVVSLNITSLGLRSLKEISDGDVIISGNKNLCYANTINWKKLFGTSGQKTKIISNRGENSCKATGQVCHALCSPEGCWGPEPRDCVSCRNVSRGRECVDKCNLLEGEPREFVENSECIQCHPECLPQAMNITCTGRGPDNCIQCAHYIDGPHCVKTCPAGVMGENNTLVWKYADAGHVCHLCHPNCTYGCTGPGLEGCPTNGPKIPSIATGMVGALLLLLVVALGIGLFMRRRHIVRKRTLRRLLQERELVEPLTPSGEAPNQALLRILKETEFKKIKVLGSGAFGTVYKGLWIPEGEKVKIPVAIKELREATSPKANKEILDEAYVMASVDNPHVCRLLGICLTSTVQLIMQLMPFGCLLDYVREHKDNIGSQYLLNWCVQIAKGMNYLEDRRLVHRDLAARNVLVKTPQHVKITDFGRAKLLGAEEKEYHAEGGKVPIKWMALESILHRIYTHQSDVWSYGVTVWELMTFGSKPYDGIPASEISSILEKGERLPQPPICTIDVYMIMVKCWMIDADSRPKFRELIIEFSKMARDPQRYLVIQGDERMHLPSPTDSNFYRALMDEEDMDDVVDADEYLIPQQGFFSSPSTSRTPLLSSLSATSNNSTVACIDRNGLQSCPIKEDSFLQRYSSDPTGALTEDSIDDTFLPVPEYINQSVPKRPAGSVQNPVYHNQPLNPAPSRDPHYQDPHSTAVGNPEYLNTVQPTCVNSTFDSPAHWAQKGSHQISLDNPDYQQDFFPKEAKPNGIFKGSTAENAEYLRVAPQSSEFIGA

GI50 [10, 13] | GI50 [10, 14] | GI50 [10, 15] | GI50 [10, 16] | GI50 [10, 17] | GI50 [10, 18] | GI50 [10, 19] | GI50 [11] | GI50 [12] | IC50 [1, 20] | IC50 [2, 21] | IC50 [3, 22] | IC50 [4, 23] | IC50 [5, 24] | IC50 [6, 25] | IC50 [7, 26] | IC50 [8, 27] | IC50 [9, 28] | Structure (SMILES) | also measured
62 nM | 42 nM | 69 nM | 7.7 nM | 16 nM | 35 nM | 48 nM | 145 nM | 2830 nM | – | – | – | – | – | – | – | – | – | Cc1cc2cc(n1)-c1cnn(C3CC3)c1OCCN(CC(F)(F)F)CCn1c(nc3ccccc31)NC2=O [Example B6, 5-cyclopropyl-26-methyl-10-(2,2,2-trifluoroethyl)-7-oxa-4,5,10,13,20,22,27-heptaazapentacyclo[22.3.1.0^{2,6}.0^{13,21}.0^{14,19}]octacosa-1(27),2(6),3,14,16,18,20,24(28),25-nonaen-23-one] | IC50 ([1]; EGFR WT, 1 h, room temperature, read-out: IC50 (nM) @WT): > 5000 nM; IC50 ([2]; 1 h, room temperature, read-out: IC50 (nM) @L858R): 1090 nM; IC50 ([3]; EGFR L858R-T790M, 1 h, room temperature, read-out: IC50 (nM) @L858R-T790M): 9 nM; IC50 ([4]; EGFR Del19, 1 mM ATP, 1 h, room temperature): 197 nM; IC50 ([5]; EGFR Del19-T790M, 1 h, room temperature, read-out: IC50 (nM) @Del19-T790M): 5.2 nM; IC50 ([6]; EGFR T790M-C797S-L858R, 1 h, room temperature, read-out: IC50 (nM) @T790M- C797S - L858R): 3.1 nM; IC50 ([7]; EGFR T790M-C797S-Del19, 1 mM ATP, 1 h, room temperature, read-out: IC50 (nM) @T790M - C797S - Del19): 3.6 nM; IC50 ([8]; EGFR Del19-C797S, 1 h, room temperature, read-out: IC50 (nM) @Del19-C797S): 112 nM; IC50 ([9]; EGFR L858-C797S, 1 h, room temperature, read-out: IC50 (nM) @L858-C797S): 390 nM
4.8 nM | 2.1 nM | 53 nM | 2.4 nM | 8.6 nM | 72 nM | 2.6 nM | 63 nM | 2710 nM | > 5000 nM | 469 nM | 1.3 nM | 14 nM | 0.95 nM | 1 nM | 0.98 nM | 4.2 nM | 200 nM | Cc1cc2cc(n1)-c1cnn(C)c1OCCN1CC3CCC(C3)(C1)n1c(nc3ccccc31)NC2=O (stereo not drawn) [Example B8B, 15,21-dimethyl-23-oxa-2,9,11,16,20,21,26-heptaazaheptacyclo[24.4.1.1^{1,28}.1^{13,17}.0^{2,10}.0^{3,8}.0^{18,22}]tritriaconta-3,5,7,9,13,15,17(33),18(22),19-nonaen-12-one] | –
0.58 nM | 0.59 nM | 3.2 nM | 0.6 nM | 0.83 nM | 2.7 nM | 0.6 nM | 6.1 nM | 366 nM | 114 nM | 7.4 nM | 1.1 nM | 1.4 nM | 1.3 nM | 1 nM | 1.4 nM | 0.73 nM | 3.3 nM | Cc1cc2cc(n1)-c1cnn(C)c1OCCN1CC3CCC(C3)(C1)n1c(nc3ccc(N4CCN(C)CC4)cc31)NC2=O (stereo not drawn) [Example B9B, 15,21-Dimethyl-5-(4-methylpiperazin-1-yl)-23-oxa-2,9,11,16,20,21,26-heptaazaheptacyclo[24.4.1.1^{1,28}.1^{13,17}.0^{2,10}.0^{3,8}.0^{18,22}]tritriaconta-3,5,7,9,13,15,17(33),18(22),19-nonaen-12-one] | –
626 nM | 269 nM | 2440 nM | 764 nM | 2520 nM | 3570 nM | 441 nM | 1490 nM | 5380 nM | > 5000 nM | > 5000 nM | > 5000 nM | > 5000 nM | 510 nM | > 5000 nM | 401 nM | 4320 nM | > 5000 nM | Cc1cc2cc(n1)-c1cc(=O)n(C)cc1OCCC[C@@H](C)Cn1c(nc3ccccc31)NC2=O [Example B11, (12R)-5,12,27-Trimethyl-8-oxa-5,14,21,23,28-pentaazapentacyclo[23.3.1.0^{2,7}.0^{14,22}.0^{15,20}]nonacosa-1(29),2,6,15,17,19,21,25,27-nonaene-4,24-dione] | –
